Experiments:
Format in all cases: in vivo
[1] = test system: Tenebrio molitor pupae; test: topical application to Tenebrio molitor pupae, maturation inhibition
Source text: (§1) The compounds were applied in acetone solution at concentrations of 10 percent, 1 percent and 0.5 percent. One microliter of the acetone solution was applied to each test specimen. Ten test specimens were employed for each insect at each concentration and compared to ten acetone controls and ten zero controls. Approximately eight to ten days were required before results could be ascertained.
(§2) The insect species used in the test were Tenebrio molitor pupae; milkweed bug, fourth nymphal stage; wax moth, fifth larval stage; and Mexican bean beetle, fourth larval stage. At the completion of the test, each specimen was examined for the degree of juvenile and adult characteristics. The milkweed bug, wax moth, and Mexican bean beetle were assigned a numerical rating of 0 to 3 with 0 indicating no effect and 3 indicating the maximum effect or least adult development. Because of differences in morphology the Tenebrio rating scale was 0 to 4. In all cases a rating of 2 or higher means that the insect is incapable of reproduction. The number of specimens in each rating classification are given. In any test were the total of specimens reported is less than 10, those unreported died in some metamorphic stage. Such deaths indicate control, since the dead insects are not capable of reproducing.

[2] = test system: milkweed bug; test: topical application to milkweed bug, fourth nymphal stage, maturation inhibition; conditions: rating scale 0-3
Source text: as §1, §2

[3] = test system: wax moth; test: topical application to wax moth, fifth larval stage, maturation inhibition
Source text: as §1, §2

[4] = test system: Mexican bean beetle; test: topical application to Mexican bean beetle, fourth larval stage, maturation inhibition
Source text: as §1, §2

[5] = 10% in acetone, 1 microliter topical, rating scale 0 (no effect) to 4 (maximum)
[6] = 10% in acetone, 1 microliter topical, rating scale 0 (no effect) to 3 (maximum)

SMILES | number of specimens in rating 0 ([1]; 0.5%, rating scale 0-4) [specimens] | number of specimens in rating 0 ([1]; 1%, rating scale 0-4) [specimens] | number of specimens in rating 0 [1, 5] [specimens] | number of specimens in rating 0 ([2]; 0.5%) [specimens] | number of specimens in rating 1 ([2]; 0.5%) [specimens] | number of specimens in rating 0 ([2]; 1%) [specimens] | number of specimens in rating 3 ([2]; 1%) [specimens] | number of specimens in rating 3 ([2]; 10%) [specimens] | number of specimens in rating 0 ([3]; 0.5%, rating scale 0-3) [specimens] | number of specimens in rating 0 ([3]; 1%, rating scale 0-3) [specimens] | number of specimens in rating 0 [3, 6] [specimens] | number of specimens in rating 0 ([4]; 0.5%, rating scale 0-3) [specimens] | number of specimens in rating 0 ([4]; 1%, rating scale 0-3) [specimens] | number of specimens in rating 3 ([4]; 1%, rating scale 0-3) [specimens] | number of specimens in rating 0 [4, 6] [specimens] | number of specimens in rating 3 ([4]; 10%, rating scale 0-3) [specimens] | number of specimens in rating 4 ([1]; 10%, rating scale 0-4) [specimens] | number of specimens in rating 2 ([2]; 0.5%) [specimens] | number of specimens in rating 2 ([2]; 1%) [specimens] | number of specimens in rating 3 ([2]; 0.5%) [specimens] | other results
CC(C)=CCCC(C)=CCCc1cc2c(cc1Cl)OCO2 [9-(2-CHLORO-4,5-METHYLENEDIOXYPHENYL)-2,6-DIMETHYL-2,6-NONADIENE] | 10 | 10 | 10 | 9 | 1 | 3 | 6 | 10 | 10 | 10 | 8 | 10 | 9 | 10 | 7 | 10 |  |  |  |  | number of specimens in rating 1 ([2]; 1%): 1 specimens; number of specimens in rating 2 ([3]; 10%, rating scale 0-3): 1 specimens; number of specimens in rating 2 ([4]; 1%, rating scale 0-3): 1 specimens; number of specimens in rating 1 ([4]; 10%, rating scale 0-3): 3 specimens
CCOc1cccc(CCC=C(C)CCC=C(C)C)c1 [9-(3-ethoxyphenyl)-2,6-dimethyl-2,6nonadiene] | 10 | 8 |  | 3 | 1 |  | 2 | 7 | 10 | 10 | 10 | 10 | 8 |  | 1 | 7 | 4 | 2 | 7 |  | number of specimens in rating 1 ([1]; 1%, rating scale 0-4): 2 specimens; number of specimens in rating 1 ([1]; 10%, rating scale 0-4): 1 specimens; number of specimens in rating 3 ([1]; 10%, rating scale 0-4): 5 specimens; number of specimens in rating 1 ([4]; 1%, rating scale 0-3): 2 specimens; number of specimens in rating 2 ([4]; 10%, rating scale 0-3): 2 specimens
CCOC(=O)c1ccc(CC/C=C(\C)CCC=C(C)C)cc1 [ethyl trans-4-(4,8-dimethyl-3,7-nonadienyl)benzoate] | 9 | 10 | 3 | 1 |  |  | 10 | 10 | 10 | 10 | 10 | 9 | 10 |  | 8 |  |  | 3 |  | 6 | number of specimens in rating 1 ([1]; 10%, rating scale 0-4): 5 specimens; number of specimens in rating 2 ([1]; 10%, rating scale 0-4): 1 specimens; number of specimens in rating 3 ([1]; 10%, rating scale 0-4): 1 specimens; number of specimens in rating 2 ([4]; 10%, rating scale 0-3): 2 specimens
CC(C)=CCC/C(C)=C/CCc1cccc(Cl)c1 [trans-2,6-dimethyl-9-(3-chlorophenyl)-2,6-nonadiene] | 10 | 10 | 2 |  |  |  | 10 | 10 | 10 | 7 | 7 | 10 | 9 | 1 |  | 10 |  |  |  | 10 | number of specimens in rating 1 ([1]; 10%, rating scale 0-4): 1 specimens; number of specimens in rating 2 ([1]; 10%, rating scale 0-4): 1 specimens; number of specimens in rating 3 ([1]; 10%, rating scale 0-4): 6 specimens; number of specimens in rating 1 ([3]; 1%, rating scale 0-3): 1 specimens; number of specimens in rating 2 ([3]; 1%, rating scale 0-3): 2 specimens; number of specimens in rating 1 ([3]; 10%, rating scale 0-3): 3 specimens
CC(C)=CCC/C(C)=C/CCc1cccc(C)c1 [trans-2,6-dimethyl-9-(3-tolyl)-2,6-nonadiene] | 10 | 9 |  | 10 |  | 5 | 1 | 10 | 10 | 10 | 10 | 9 | 1 | 7 |  | 10 | 10 |  | 2 |  | number of specimens in rating 2 ([1]; 1%, rating scale 0-4): 1 specimens; number of specimens in rating 2 ([4]; 0.5%, rating scale 0-3): 1 specimens; number of specimens in rating 1 ([4]; 1%, rating scale 0-3): 1 specimens; number of specimens in rating 2 ([4]; 1%, rating scale 0-3): 1 specimens
CC(C)=CCC/C(C)=C/CCc1ccc(N(C)C)cc1 [trans-4-(4,8-DIMETHYL-3,7-NONADIENYL)-N,N-DIMETYLANILINE] | 10 | 2 |  | 10 |  | 5 | 2 | 10 | 10 | 10 | 10 | 10 | 9 | 1 |  | 10 | 10 |  | 1 |  | number of specimens in rating 1 ([1]; 1%, rating scale 0-4): 2 specimens; number of specimens in rating 2 ([1]; 1%, rating scale 0-4): 1 specimens; number of specimens in rating 3 ([1]; 1%, rating scale 0-4): 4 specimens; number of specimens in rating 1 ([2]; 1%): 1 specimens
CC(C)=CCC/C(C)=C/CCc1ccc(C#N)cc1 [trans-4-(4,8-DIMETHYL-3,7-NONADIENYL)BENZONITRILE] | 10 | 10 | 9 | 3 | 5 |  | 7 | 10 | 10 | 10 | 10 | 10 | 10 |  | 10 |  | 1 | 1 | 3 | 1 | 
CC(C)=CCC/C(C)=C/CCc1c(Cl)cccc1Cl [trans-9-(2,6-DICHLOROPHENYL)-2,6-DIMETHYL-2,6-NONADIENE] | 10 | 10 | 9 | 10 |  | 8 |  | 10 | 10 | 10 | 10 | 10 | 9 |  | 8 |  |  |  |  |  | number of specimens in rating 1 ([4]; 1%, rating scale 0-3): 1 specimens; number of specimens in rating 1 ([4]; 10%, rating scale 0-3): 2 specimens
CC(C)=CCC/C(C)=C/CCc1ccc(F)cc1 [trans-9-(4-FLUOROPHENYL)-2,6-DIMETHYL-2,6-NONADIENE] | 10 | 10 |  |  |  |  | 8 | 10 | 10 | 9 | 10 |  |  | 10 |  | 10 | 10 | 3 | 2 | 7 | number of specimens in rating 3 ([4]; 0.5%, rating scale 0-3): 10 specimens
